Reference: PubChem BioAssay (NCI)
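Tested at 5 concentrations; 48 h exposure; 96-well plates; endpoints linearly interpolated, else capped at highest concentration. The concentration for full growth arrest is given as TGI.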

Legend:
Experiment in all cases: growth of human tumour cells (NCI), 48 h
MDA-N = tested on: MDA-N
TK-10 renal = tested on: TK-10 renal
MOLT-4 leukemia = tested on: MOLT-4 leukemia
SF-539 CNS = tested on: SF-539 CNS
SNB-75 CNS = tested on: SNB-75 CNS
NCI/ADR-RES ovarian = tested on: NCI/ADR-RES ovarian
HOP-92 NSCLC = tested on: HOP-92 NSCLC
LOX IMVI melanoma = tested on: LOX IMVI melanoma
HOP-62 NSCLC = tested on: HOP-62 NSCLC
DMS 273 small cell lung = tested on: DMS 273 small cell lung
M19-MEL melanoma = tested on: M19-MEL melanoma
LXFL 529 NSCLC = tested on: LXFL 529 NSCLC

Row | SMILES | TGI (MDA-N) [µM] | TGI (TK-10 renal) [µM] | TGI (MOLT-4 leukemia) [µM] | TGI (SF-539 CNS) [µM] | TGI (SNB-75 CNS) [µM] | TGI (NCI/ADR-RES ovarian) [µM] | TGI (HOP-92 NSCLC) [µM] | TGI (LOX IMVI melanoma) [µM] | TGI (HOP-62 NSCLC) [µM] | TGI (DMS 273 small cell lung) [µM] | TGI (M19-MEL melanoma) [µM] | TGI (LXFL 529 NSCLC) [µM]
1 | CN1CCN(C(=O)c2cn(Cc3cncn3Cc3ccc4c(c3)OCO4)cc2-c2cccc3ccccc23)CC1 | > 100 | > 100 | 33.6 | > 72.8 | 67.9 | > 100 | 57.8 | 47.8 | > 100 | – | – | –
2 | CC(O)c1nc(C#N)c(N)o1 (stereo not drawn) | > 100 | > 100 | > 100 | > 100 | > 100 | > 100 | > 100 | > 100 | > 100 | – | – | –
3 | Cc1cn(CCCCCCOC(=O)NC(CCCNC(N)=O)C(=O)O)c(=O)[nH]c1=O (stereo not drawn) | > 100 | > 100 | > 100 | > 100 | > 100 | > 100 | > 100 | > 100 | > 100 | – | – | –
4 | CCN1CC2(C)CCC(OC)C34C5CC6CCC(O)(C5C(=O)O6)C(C(O)C23)C14 (stereo not drawn) | > 100 | > 100 | > 100 | > 100 | > 100 | > 100 | > 100 | > 100 | > 100 | – | – | –
5 | c1cnc2c(c1)-n1cccc1C1(CCCCC1)NN2 | – | > 100 | > 100 | > 100 | > 100 | – | – | > 100 | > 100 | > 100 | – | –
6 | CC(C)CCCC(C)[C@H]1CCC(C2C[C@@H](O)[C@@H]3CC(O)[C@@H](O)C[C@]3(CO)C2=O)[C@]1(C)CCO (stereo partly drawn) | – | – | 22.4 | 39.6 | 48.7 | > 100 | – | 39.3 | 52.8 | > 68.5 | 39 | –
7 | N#Cc1nc(CCc2nc(C#N)c(N)o2)oc1N | > 10 | > 10 | > 10 | > 10 | > 10 | > 10 | > 10 | > 10 | > 10 | – | – | –
8 | COc1cc(CCNC2=CC(=O)c3nc[nH]c3C2=O)ccc1O | 32.5 | 87.5 | 89.1 | > 100 | 40.4 | > 100 | 73.3 | 45.7 | > 100 | – | – | –
9 | CC(=O)C(=Cc1cn(C)c(=O)n(C)c1=O)C(C)=O | – | – | 382 | 209 | 240 | 286 | 8.16 | 171 | 400 | 225 | 273 | –
10 | Cc1ccccc1NC(=O)O/N=C(\Cl)C(C)C | 8.58 | 8.19 | > 28 | 22.6 | 32.1 | 33.7 | 4.08 | 3.11 | 33.4 | – | – | –
11 | C[s+]1c2ccccc2c2ccccc21 | – | > 100 | > 100 | > 100 | – | – | – | > 100 | > 100 | > 100 | > 100 | > 100
12 | NC(=O)[C@H](Cc1ccc(O)cc1)Nc1c(O)c2c(c(O)c1Cl)C(=O)C=CC2=O | 4.1 | > 6.51 | 2.43 | 5.28 | > 10 | > 7.25 | 4.72 | > 4.65 | > 10 | – | – | –
13 | COc1cc2c(cc1O)C1Cc3ccc(OC)c(O)c3C[N+]1(C)CC2 (stereo not drawn) | > 100 | > 100 | > 100 | > 100 | > 100 | > 100 | > 100 | > 100 | > 100 | – | – | –
14 | O=C(c1ccccc1)C1N=NN(Cc2ccccc2[N+](=O)[O-])C1C(=O)c1ccccc1 (stereo not drawn) | – | > 100 | > 100 | – | > 100 | – | > 100 | > 100 | > 100 | > 100 | > 100 | > 100
15 | Cc1cc(=O)[nH]c(NNC(C#N)c2cccc([N+](=O)[O-])c2)n1 (stereo not drawn) | – | > 100 | > 100 | > 100 | > 100 | – | > 100 | > 100 | > 100 | > 100 | > 100 | > 100
16 | N#C/C(=C\c1ccc2[nH]ccc2c1)C(=O)NCCCCNC(=O)/C(C#N)=C/c1ccc2[nH]ccc2c1 | > 10 | > 31.6 | > 31.6 | > 31.6 | > 31.6 | > 10 | > 31.6 | > 31.6 | > 31.6 | > 100 | > 100 | > 100
17 | CC(C)(C)C(=O)Nc1c(C=O)ccc2[nH]cnc12 | > 100 | > 100 | 73.7 | > 100 | > 100 | > 100 | > 100 | > 100 | > 100 | – | – | –
